# Laboratory results from patent US20210128609A1, “ONCOLOGY TREATMENTS USING ZINC AGENTS” (XYLONIX IP HOLDINGS PTE. LTD., priority 2018, published 2021).
# Legend:
# WSU-NHL = test: CellTiter-Glo cell viability, WSU-NHL; format: cell-based
# Procedure: (§1) The 50% inhibitory concentration (IC50) was determined in the cancer cell lines using CellTiter-Glo luminescent cell viability assay after incubation with different concentrations of active agents. Each cell line was treated with active Zn(II) agent, a standard chemotherapy drug as reference control, and culture medium as vehicle control. Cell Lines. All cell lines were cultured in media supplemented with 10-15% FBS, at a temperature of 37° C., 5% CO2, and 95% humidity. The reference control drug for all cell lines was cisplatin, to be used for genomic analysis. The cell lines tested, the tissue of origin are shown below in Table 1: Procedure for Determining Half Maximal Inhibition Concentration IC50 • 1. Harvested cells during the logarithmic growth period and count cell number using Count-star. • 2. Adjusted cell concentrations to 4.44×10^4 cells/mL with respective culture medium. • 3. Added 90 μL cell suspensions to two 96-well plates (plates A and B) with the final cell density of 4×10^3 cells/well. (cell concentration was adjusted according to the data base or density optimization assay.) • 4a. Next day: For the plates of TO reading: • 1) Added 10 μL culture medium to each well of plate A for TO reading. • 2) Equilibrated the plate and its content at RT for approximately 30 min. • 3) Added 50 μL CellTiter-Glo reagent to each well. • 4) Mixed content for 5 min on an orbital shaker to induce cell lysis. • 5) Allowed the plate to incubate at RT for 20 min to stabilize luminescent signal. • 6) Recorded luminescence (TO) using EnVision Multi Label Reader. • 4b. For the plates of test reading: • 1) Prepared 10× solution of Zn(II) agent test article. […] The formula for calculating surviving rate is shown below and the absolute IC50 (EC50) was calculated according to the dose-response curve generated by GraphPad Prism 5.0. • 12) The surviving rate (%)=(LumTest article−LumMedium control)/(LumNon-treated−LumMedium control)×100%.
# Raji = test: CellTiter-Glo cell viability, Raji; format: cell-based
# Procedure: as §1
# 50 cancer cell lines [1] = test: Genetic instability mutation analysis of 50 cell line IC50 distribution
# Description: Following the 50 cell line screening tests (OmniScreen™) described in Example 6, each cell line was catalogued (yes or no) for the presence of mutations in the following genes by consulting the OncoExpress™ database (Crown Biosciences Inc., Santa Clara, data accession date 18 May 2018˜30 May 2018). • MLH1 (part of the deficient mismatch repair—dMMR-mutations group) • MSH2 (part of the deficient mismatch repair—dMMR-mutations group) • PMS2 (part of the deficient mismatch repair—dMMR-mutations group) • PARP1 • BRCA1 (part of the BRCA1/BRCA2 mutations group) • BRCA2 (part of the BRCA1/BRCA2 mutations group) • TP53
# The integrated data were then analyzed using Excel® software (Microsoft, Seattle). Briefly, the sorting algorithm of the Excel® software was used in grouping of the cell lines carrying certain mutations, and in further analysis of the IC50 distribution in each group.
# The IC50 distributions among the cell line groups sharing certain genetic mutations were then analyzed for statistical significance.
# Statistical analysis was performed using JMP 13 (SAS Institute Inc. Cary, N.C., USA) or Origin 9 (Origin Lab Corp., Northampton, Mass., USA). All data are represented as mean±standard error of the mean (SEM) and were tested for statistical significance using Mann-Whitney U test or analysis of variance (ANOVA). P-values of <0.05 were interpreted as statistically significant.
# Daudi = test: CellTiter-Glo cell viability, Daudi; format: cell-based
# Procedure: as §1
# SU-DHL-6 = test: CellTiter-Glo cell viability, SU-DHL-6; format: cell-based
# Procedure: as §1
# NAMALWA = test: CellTiter-Glo cell viability, NAMALWA; format: cell-based
# Procedure: as §1
# MV-4-11 = test: CellTiter-Glo cell viability, MV-4-11; format: cell-based
# Procedure: as §1
# AMO-1 = test: CellTiter-Glo cell viability, AMO-1; format: cell-based
# Procedure: as §1
# Pfeiffer = test: CellTiter-Glo cell viability, Pfeiffer; format: cell-based
# Procedure: as §1
# KARPAS-422 = test: CellTiter-Glo cell viability, KARPAS-422; format: cell-based
# Procedure: as §1
# Ramos = test: CellTiter-Glo cell viability, Ramos; format: cell-based
# Procedure: as §1
# MCF7 = test: CellTiter-Glo cell viability, MCF7; format: cell-based
# Procedure: The 50% inhibitory concentration (IC50) was determined in the cancer cell lines using CellTiter-Glo luminescent cell viability assay after incubation with different concentrations of active agents. Each cell line was treated with active Zn(II) agent, a standard chemotherapy drug as reference control, and culture medium as vehicle control. Cell Lines. All cell lines were cultured in media supplemented with 10-15% FBS, at a temperature of 37° C., 5% CO2, and 95% humidity. The reference control drug for all cell lines was cisplatin, to be used for genomic analysis. The cell lines tested, the tissue of origin are shown below in Table 1: Procedure for Determining Half Maximal Inhibition Concentration IC50 • 1. Harvested cells during the logarithmic growth period and count cell number using Count-star. • 2. Adjusted cell concentrations to 4.44×10^4 cells/mL with respective culture medium. • 3. Added 90 μL cell suspensions to two 96-well plates (plates A and B) with the final cell density of 4×10^3 cells/well. (cell concentration was adjusted according to the data base or density optimization assay.) • 4a. […]
# HCC1954 = test: CellTiter-Glo cell viability, HCC1954; format: cell-based
# Procedure: as §1
# CA46 = test: CellTiter-Glo cell viability, CA46; format: cell-based
# Procedure: as §1
# HL-60 = test: CellTiter-Glo cell viability, HL-60; format: cell-based
# Procedure: as §1
# 50 cancer cell lines [2] = test: 50 cell line screen, summary of eradication; format: cell-based; settings: out of 50 cell lines
# Procedure: as §1, with “control.” for “control. Cell Lines. All cell lines were cultured in media supplemented with 10-15% FBS, at a temperature of 37° C., 5% CO2, and 95% humidity. The reference control drug for all cell lines was cisplatin, to be used for genomic analysis. The cell lines tested, the tissue of origin are shown below in Table 1:”, “control)×100%. Stratifying the cell line panel makeup, the 50 cell lines included 30 blood cancers (17 leukemia and 13 lymphoma cell lines) and 20 solid tumor cancers, including breast (3), cervical (1), colorectum (1), liver (4), lung (4), ovarian (2), pancreas (2), prostate (2), and uterine (1) cancer cell lines.” for “control)×100%.”
# SK-HEP-1 = test: CellTiter-Glo cell viability, SK-HEP-1; format: cell-based
# Procedure: as §1
# [3] = 96 h, top conc. 50 μg/mL Zn(II) agent, 100 μM cisplatin
smiles,measurement,setting,value
N.N.[Cl][Pt][Cl] [Cisplatin],Absolute IC50,"WSU-NHL; 96 h, CellTiter-Glo",0.06 µg/mL
same,% inhibition at top conc.,WSU-NHL; [3],99.99%
same,HillSlope,WSU-NHL; 96 h dose-response fit,−1.77
same,Absolute IC50,"Raji; 96 h, CellTiter-Glo",0.50 µg/mL
same,% inhibition at top conc.,Raji; [3],99.57%
same,HillSlope,Raji; 96 h dose-response fit,−2.98
same,effect of CREBBPmt-KRASmt-BRCA1WT combination on sensitivity,50 cancer cell lines [1],strong resistance
same,Absolute IC50,"Daudi; 96 h, CellTiter-Glo",0.11 µg/mL
same,% inhibition at top conc.,Daudi; [3],99.86%
same,HillSlope,Daudi; 96 h dose-response fit,−1.59
same,Absolute IC50,"SU-DHL-6; 96 h, CellTiter-Glo",0.38 µg/mL
same,% inhibition at top conc.,SU-DHL-6; [3],99.99%
same,HillSlope,SU-DHL-6; 96 h dose-response fit,−1.11
same,Absolute IC50,"NAMALWA; 96 h, CellTiter-Glo",0.07 µg/mL
same,% inhibition at top conc.,NAMALWA; [3],99.99%
same,HillSlope,NAMALWA; 96 h dose-response fit,−3.97
same,Absolute IC50,"MV-4-11; 96 h, CellTiter-Glo",0.09 µg/mL
same,% inhibition at top conc.,MV-4-11; [3],99.99%
same,HillSlope,MV-4-11; 96 h dose-response fit,−2.06
same,Absolute IC50,"AMO-1; 96 h, CellTiter-Glo",0.27 µg/mL
same,% inhibition at top conc.,AMO-1; [3],99.99%
same,HillSlope,AMO-1; 96 h dose-response fit,−3.34
same,Absolute IC50,"Pfeiffer; 96 h, CellTiter-Glo",0.83 µg/mL
same,% inhibition at top conc.,Pfeiffer; [3],99.98%
same,HillSlope,Pfeiffer; 96 h dose-response fit,−1.79
same,Absolute IC50,"KARPAS-422; 96 h, CellTiter-Glo",0.37 µg/mL
same,% inhibition at top conc.,KARPAS-422; [3],99.99%
same,HillSlope,KARPAS-422; 96 h dose-response fit,−1.04
same,Absolute IC50,"Ramos; 96 h, CellTiter-Glo",0.17 µg/mL
same,% inhibition at top conc.,Ramos; [3],99.99%
same,HillSlope,Ramos; 96 h dose-response fit,−2.13
same,% inhibition at top conc.,MCF7; [3],96.37%
same,HillSlope,MCF7; 96 h dose-response fit,−0.60
same,Absolute IC50,"HCC1954; 96 h, CellTiter-Glo",1.59 µg/mL
same,% inhibition at top conc.,HCC1954; [3],99.87%
same,HillSlope,HCC1954; 96 h dose-response fit,−1.98
same,Absolute IC50,"CA46; 96 h, CellTiter-Glo",0.21 µg/mL
same,% inhibition at top conc.,CA46; [3],99.92%
same,HillSlope,CA46; 96 h dose-response fit,−1.96
same,Absolute IC50,"HL-60; 96 h, CellTiter-Glo",0.29 µg/mL
same,% inhibition at top conc.,HL-60; [3],99.99%
same,HillSlope,HL-60; 96 h dose-response fit,−2.08
same,number of cell lines with more than 97% eradication,50 cancer cell lines [2],45
same,number of cell lines with more than 99% eradication,50 cancer cell lines [2],39
same,number of cell lines with poor response of less than 90% eradication,50 cancer cell lines [2],2
same,Absolute IC50,"SK-HEP-1; 96 h, CellTiter-Glo",2.13 µg/mL
same,% inhibition at top conc.,SK-HEP-1; [3],99.93%
same,HillSlope,SK-HEP-1; 96 h dose-response fit,−1.28
